Experiments:
[1] = biological target: Histamine H3 receptor (Homo sapiens, UniProt Q9Y5N1); assay: Binding affinity for human histamine H3 receptor on human colon cells; type: cell-based
[2] = biological target: Histamine H3 receptor (Rattus norvegicus, UniProt Q9QYN8); assay: Binding affinity for rat histamine H3 receptor on rat cortical cells
Histamine H3 receptor (Rattus norvegicus, UniProt Q9QYN8), sequence (Q9QYN8 whole entry): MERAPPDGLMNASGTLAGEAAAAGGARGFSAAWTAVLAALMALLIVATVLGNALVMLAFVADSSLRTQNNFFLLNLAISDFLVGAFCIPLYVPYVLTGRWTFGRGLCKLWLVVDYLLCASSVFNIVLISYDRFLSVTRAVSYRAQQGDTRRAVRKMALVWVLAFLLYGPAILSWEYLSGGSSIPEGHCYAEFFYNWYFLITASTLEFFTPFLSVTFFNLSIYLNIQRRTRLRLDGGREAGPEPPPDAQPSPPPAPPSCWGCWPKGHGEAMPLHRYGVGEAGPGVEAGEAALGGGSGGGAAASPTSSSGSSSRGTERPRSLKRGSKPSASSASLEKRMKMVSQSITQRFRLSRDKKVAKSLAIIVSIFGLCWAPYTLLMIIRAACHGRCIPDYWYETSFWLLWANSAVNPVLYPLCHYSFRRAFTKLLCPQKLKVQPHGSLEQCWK

Histamine H3 receptor (Homo sapiens, UniProt Q9Y5N1), sequence (Q9Y5N1 whole entry): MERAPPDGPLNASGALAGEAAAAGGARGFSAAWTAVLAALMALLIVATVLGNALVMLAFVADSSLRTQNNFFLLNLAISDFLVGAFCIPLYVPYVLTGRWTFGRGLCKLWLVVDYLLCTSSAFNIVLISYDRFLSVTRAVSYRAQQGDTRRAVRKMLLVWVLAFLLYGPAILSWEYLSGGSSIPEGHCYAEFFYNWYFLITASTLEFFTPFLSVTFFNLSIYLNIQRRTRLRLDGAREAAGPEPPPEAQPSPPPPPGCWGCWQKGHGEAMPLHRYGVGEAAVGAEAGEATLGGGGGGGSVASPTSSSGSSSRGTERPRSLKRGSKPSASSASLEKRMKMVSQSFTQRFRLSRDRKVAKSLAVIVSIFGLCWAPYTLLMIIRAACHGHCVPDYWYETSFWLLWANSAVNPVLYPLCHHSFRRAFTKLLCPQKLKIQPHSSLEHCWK

SMILES | Ki [1] [nM] | Ki [2] [nM]
COc1ccc(C(=O)N[C@H](C)C(=O)N2CCN(CCCOc3ccc(-c4noc(CC5CCCC5)n4)c(F)c3)CC2)cc1 | 11 | 
CC(C)CCC(=O)N[C@H](C)C(=O)N1CCN(CCCOc2ccc(-c3noc(-c4ccccc4)n3)c(F)c2)CC1 | 68 | 14
C[C@@H](NC(=O)c1ccco1)C(=O)N1CCN(CCCOc2ccc(-c3noc(-c4ccccc4)n3)c(F)c2)CC1 (stereo in doubt; 13p) | 43 | 
C[C@@H](NC(=O)c1ccco1)C(=O)N1CCCN(CCCOc2ccc(-c3noc(-c4cccs4)n3)c(F)c2)CC1 | 160 | 6.2
C[C@@H](NC(=O)[C@@H]1CCCO1)C(=O)N1CCN(CCCOc2ccc(-c3noc(-c4ccccc4)n3)c(F)c2)CC1 | 80 | 
C[C@@H](NC(=O)c1ccco1)C(=O)N1CCCN(CCCOc2ccc(-c3noc(C4CCCCCC4)n3)c(F)c2)CC1 | 15 | 3.3
C[C@@H](NC(=O)c1ccc(Cl)cc1)C(=O)N1CCCN(CCCOc2ccc(-c3noc(CC4CCCC4)n3)c(F)c2)CC1 | 31 | 5.2
CC(C)CCC(=O)N[C@H](C)C(=O)N1CCCN(CCCOc2ccc(-c3noc(CC4CCCC4)n3)c(F)c2)CC1 | 23 | 2.8
C[C@@H](NC(=O)CC1CCCC1)C(=O)N1CCN(CCCOc2ccc(-c3noc(-c4ccccc4)n3)c(F)c2)CC1 | 130 | 21
C[C@@H](NC(=O)c1cccs1)C(=O)N1CCN(CCCOc2ccc(-c3noc(-c4ccccc4)n3)c(F)c2)CC1 | 40 | 
CC(C)Cc1nc(-c2ccc(OCCCN3CCCN(C(=O)[C@@H](C)NC(=O)c4ccco4)CC3)cc2F)no1 | 33 | 1.7
C[C@@H](NC(=O)CC(C)(C)C)C(=O)N1CCN(CCCOc2ccc(-c3noc(CC4CCCC4)n3)c(F)c2)CC1 | 100 | 6.4
COc1ccc(C(=O)N[C@H](C)C(=O)N2CCN(CCCOc3ccc(-c4noc(CC5CCCC5)n4)c(F)c3)CC2)cc1OC | 24 | 2.5
C[C@@H](NC(=O)c1ccco1)C(=O)N1CCCN(CCCOc2ccc(-c3noc(-c4cccnc4)n3)c(F)c2)CC1 | 190 | 6.9
CC(C)C(=O)N[C@H](C)C(=O)N1CCN(CCCOc2ccc(-c3noc(-c4ccccc4)n3)c(F)c2)CC1 | 110 | 14
C[C@@H](NC(=O)CN1CCOCC1)C(=O)N1CCN(CCCOc2ccc(-c3noc(-c4ccccc4)n3)c(F)c2)CC1 | 92 | 8.2
C[C@@H](NC(=O)c1cccc(N(C)C)c1)C(=O)N1CCN(CCCOc2ccc(-c3noc(CC4CCCC4)n3)c(F)c2)CC1 | 47 | 2.6
C[C@@H](NC(=O)c1ccno1)C(=O)N1CCN(CCCOc2ccc(-c3noc(-c4ccccc4)n3)c(F)c2)CC1 | 86 | 
C[C@@H](NC(=O)c1cccc(OC(F)(F)F)c1)C(=O)N1CCN(CCCOc2ccc(-c3noc(CC4CCCC4)n3)c(F)c2)CC1 | 65 | 24
C[C@@H](NC(=O)c1ccsc1)C(=O)N1CCN(CCCOc2ccc(-c3noc(-c4ccccc4)n3)c(F)c2)CC1 | 28 | 4.2
CCCCC(=O)N[C@H](C)C(=O)N1CCN(CCCOc2ccc(-c3noc(CC4CCCC4)n3)c(F)c2)CC1 | 79 | 2.6
CC(C)CCC(=O)N[C@H](C)C(=O)N1CCN(CCCOc2ccc(-c3noc(CC4CCCC4)n3)c(F)c2)CC1 | 98 | 6.1

SMILES | Ki [1] [nM] | Ki [2] [nM]
C[C@@H](NC(=O)c1ccco1)C(=O)N1CCCN(CCCOc2ccc(-c3noc(-c4ccsc4)n3)c(F)c2)CC1 | 49 | 2.6
COc1ccccc1C(=O)N[C@H](C)C(=O)N1CCN(CCCOc2ccc(-c3noc(CC4CCCC4)n3)c(F)c2)CC1 | 54 | 7
C[C@@H](NC(=O)c1cccnc1)C(=O)N1CCN(CCCOc2ccc(-c3noc(-c4ccccc4)n3)c(F)c2)CC1 | 27 | 
C[C@@H](NC(=O)c1ccc(C#N)cc1)C(=O)N1CCN(CCCOc2ccc(-c3noc(CC4CCCC4)n3)c(F)c2)CC1 | 9.5 | 1.2
CC(=O)N[C@H](C)C(=O)N1CCCN(CCCOc2ccc(-c3noc(CC4CCCC4)n3)c(F)c2)CC1 | 40 | 2
CC(C)C(=O)N[C@H](C)C(=O)N1CCCN(CCCOc2ccc(-c3noc(CC4CCCC4)n3)c(F)c2)CC1 | 14 | 1.3
C[C@@H](NC(=O)c1ccco1)C(=O)N1CCCN(CCCOc2ccc(-c3noc(C4CCCO4)n3)c(F)c2)CC1 (mixture of isomers) | 210 | 7.7
C[C@H](NC(=O)OC(C)(C)C)c1nc(-c2ccc(OCCCN3CCCN(C(=O)[C@@H](C)NC(=O)c4ccco4)CC3)cc2F)no1 | 140 | 8.2
COc1ccc(C(=O)N[C@H](C)C(=O)N2CCCN(CCCOc3ccc(-c4noc(CC5CCCC5)n4)c(F)c3)CC2)cc1 | 9.8 | 1.1
C[C@@H](NC(=O)C(C)(C)C)C(=O)N1CCN(CCCOc2ccc(-c3noc(CC4CCCC4)n3)c(F)c2)CC1 | 130 | 7
C[C@@H](NC(=O)[C@H]1CCCO1)C(=O)N1CCN(CCCOc2ccc(-c3noc(-c4ccccc4)n3)c(F)c2)CC1 | 92 | 4.2
C[C@@H](NC(=O)c1ccco1)C(=O)N1CCCN(CCCOc2ccc(-c3noc(C(C)(C)C)n3)c(F)c2)CC1 | 85 | 4.1
C[C@@H](NC(=O)C1CCCC1)C(=O)N1CCN(CCCOc2ccc(-c3noc(-c4ccccc4)n3)c(F)c2)CC1 | 70 | 7
C[C@@H](NC(=O)c1ccco1)C(=O)N1CCCN(CCCOc2ccc(-c3noc(C4CCCCC4)n3)c(F)c2)CC1 | 19 | 2.4
C[C@@H](NC(=O)c1ccco1)C(=O)N1CCCN(CCCOc2ccc(-c3noc([C@@H](C)NC(=O)OC(C)(C)C)n3)c(F)c2)CC1 | 520 | 28
Cc1ccccc1C(=O)N[C@H](C)C(=O)N1CCN(CCCOc2ccc(-c3noc(CC4CCCC4)n3)c(F)c2)CC1 | 13 | 2.4
C[C@@H](NC(=O)c1ccc(Br)cc1)C(=O)N1CCN(CCCOc2ccc(-c3noc(CC4CCCC4)n3)c(F)c2)CC1 | 18 | 6.2
COc1cccc(C(=O)N[C@H](C)C(=O)N2CCN(CCCOc3ccc(-c4noc(CC5CCCC5)n4)c(F)c3)CC2)c1 | 34 | 3.6
Cc1cccc(C(=O)N[C@H](C)C(=O)N2CCN(CCCOc3ccc(-c4noc(CC5CCCC5)n4)c(F)c3)CC2)c1 | 31 | 4.7
C[C@@H](NC(=O)c1ccco1)C(=O)N1CCCN(CCCOc2ccc(-c3noc(-c4ccco4)n3)c(F)c2)CC1 | 170 | 5
C[C@@H](NC(=O)c1ccco1)C(=O)N1CCCN(CCCOc2ccc(-c3noc(Cc4ccccc4)n3)c(F)c2)CC1 | 40 | 1.6
C[C@@H](NC(=O)c1cnccn1)C(=O)N1CCN(CCCOc2ccc(-c3noc(-c4ccccc4)n3)c(F)c2)CC1 | 29 | 1.7

SMILES | Ki [1] [nM] | Ki [2] [nM]
C[C@@H](NC(=O)c1ccco1)C(=O)N1CCCN(CCCOc2ccc(-c3noc(-c4ccoc4)n3)c(F)c2)CC1 | 85 | 1.7
C[C@@H](NC(=O)c1ccco1)C(=O)N1CCCN(CCCOc2ccc(-c3noc(-c4ccccc4)n3)c(F)c2)CC1 | 8.6 | 4.1
C[C@@H](NC(=O)c1cccc(C#N)c1)C(=O)N1CCN(CCCOc2ccc(-c3noc(CC4CCCC4)n3)c(F)c2)CC1 | 35 | 1.5
C[C@@H](NC(=O)c1ccccc1Cl)C(=O)N1CCN(CCCOc2ccc(-c3noc(CC4CCCC4)n3)c(F)c2)CC1 | 8.6 | 
CCOCC(=O)N[C@H](C)C(=O)N1CCN(CCCOc2ccc(-c3noc(-c4ccccc4)n3)c(F)c2)CC1 | 100 | 10
C[C@@H](NC(=O)c1ccccc1F)C(=O)N1CCN(CCCOc2ccc(-c3noc(CC4CCCC4)n3)c(F)c2)CC1 | 16 | 2.9
C[C@@H](NC(=O)c1cccc(C(F)(F)F)c1)C(=O)N1CCN(CCCOc2ccc(-c3noc(CC4CCCC4)n3)c(F)c2)CC1 | 87 | 10
C[C@@H](NC(=O)c1ccco1)C(=O)N1CCCN(CCCOc2ccc(-c3noc(C4CCCC4)n3)c(F)c2)CC1 | 15 | 0.86
C[C@@H](NC(=O)c1cccc(F)c1)C(=O)N1CCN(CCCOc2ccc(-c3noc(CC4CCCC4)n3)c(F)c2)CC1 | 18 | 3.8
C[C@@H](NC(=O)c1ccco1)C(=O)N1CCCN(CCCOc2ccc(-c3noc(CCc4ccccc4)n3)c(F)c2)CC1 | 7.5 | 0.94
C[C@@H](NC(=O)CCN1CCOCC1)C(=O)N1CCCN(CCCOc2ccc(-c3noc(CC4CCCC4)n3)c(F)c2)CC1 | 13 | 0.58
C[C@@H](NC(=O)CCN1CCOCC1)C(=O)N1CCN(CCCOc2ccc(-c3noc(-c4ccccc4)n3)c(F)c2)CC1 | 88 | 
C[C@@H](NC(=O)c1ccco1)C(=O)N1CCN(CCCOc2ccc(C(=O)C3CC3)c(F)c2)CC1 | 43 | 1.3
C[C@@H](NC(=O)c1ccc(C#N)cc1)C(=O)N1CCN(CCCOc2ccc(-c3noc(-c4ccccc4)n3)c(F)c2)CC1 | 20 | 2.6
C[C@@H](NC(=O)c1ccc(Cl)cc1)C(=O)N1CCN(CCCOc2ccc(-c3noc(CC4CCCC4)n3)c(F)c2)CC1 | 24 | 2.8
C[C@@H](NC(=O)c1ccc(C#N)cc1)C(=O)N1CCCN(CCCOc2ccc(-c3noc(CC4CCCC4)n3)c(F)c2)CC1 | 12 | 
Cc1ccc(C(=O)N[C@H](C)C(=O)N2CCCN(CCCOc3ccc(-c4noc(CC5CCCC5)n4)c(F)c3)CC2)cc1 | 17 | 1.4
CCC(=O)N[C@H](C)C(=O)N1CCCN(CCCOc2ccc(-c3noc(CC4CCCC4)n3)c(F)c2)CC1 | 26 | 1.1
CCCCCC(=O)c1ccc(OCCCN2CCN(C(=O)OCC)CC2)cc1 |  | 1
CC(C)CC(=O)N[C@H](C)C(=O)N1CCN(CCCOc2ccc(-c3noc(-c4ccccc4)n3)c(F)c2)CC1 | 56 | 
CCc1nc(-c2ccc(OCCCN3CCCN(C(=O)[C@@H](C)NC(=O)c4ccco4)CC3)cc2F)no1 | 120 | 
C[C@@H](N)C(=O)N1CCN(CCCOc2ccc(C(=O)C3CC3)cc2)CC1 | 760 | 
